Experimental data as given in publication PMC5618418, “Pharmacokinetics of Jaspine B and Enhancement of Intestinal Absorption of Jaspine B in the Presence of Bile Acid in Rats” (Marine Drugs, 2017).
Where two headings read alike, the source gives them in different places.

What was measured:
786-O = system: 786-O; parameters: method as in doi:10.5352/JLS.2016.26.12.1392; conditions: 786-O renal carcinoma; cited from earlier work
[1] = system: metastatic melanoma cell growth in the lungs; parameters: method as in PMID 22451302; conditions: mice, intravenous (equivalent to 6.7 mg/kg) on 4th, 8th, 12th day, read on day 14; cited from earlier work
[2] = Tissue distribution after intravenous administration; assay type: in vivo; conditions: rat
Experimental: Jaspine B was dissolved in a vehicle containing DMSO: PEG400: saline (2:4:4, v/v/v) and IV-injected via the femoral vein at a dose of 10 mg/kg (vehicle volume, 1 mL/kg). Blood samples were collected from the abdominal artery and animals were euthanized at 0.5 h and 12 h after IV dosing. The blood, brain, liver, kidney, heart, and spleen were immediately excised, gently washed with ice-cold saline, and weighed. The tissue samples were homogenized with 9 volumes of saline. Aliquots of 50 μL of tissue homogenates and plasma were stored at −80 °C until the analysis.
Aliquots (50 μL) of plasma and tissue homogenates were added to 250 μL of acetonitrile containing 0.5 ng/mL of berberine. After vortexing for 10 min and centrifugation at 13,200 rpm for 5 min, an aliquot (2 μL) of the supernatant was injected directly into the LC-MS/MS system. For the analysis of plasma and tissue concentration, the standard curves with a range of 5–1000 ng/mL in the blank plasma and 10% bank tissue homogenates from brain, liver, kidney, heart, and spleen were prepared, and the concentrations of quality control (QC) samples of respective plasma and tissue homogenates were 25 and 750 ng/mL. The recovery of these spiked QC samples were in the range of 73.6–112.2% in all tissue homogenates. Intra- and inter-day precision and accuracy had coefficients of variance of less than 15%.

[3] = Pharmacokinetics after intravenous injection (plasma, bile, urine); assay type: in vivo, rat; conditions: for half-life: iv, 10 mg/kg
Experimental: Male SD rats (aged 8–9 weeks, weighing 250–300 g) were obtained from Samtako Bio Korea, Inc. (Osan, Korea). The rats were acclimatized for 1 week in a temperature-controlled room (23 ± 2 °C) with a 12-h illumination cycle. Food and water were given ad libitum. All animal procedures were approved by the Animal Care and Use Committee of the Kyungpook National University (No. 2015-0064). The rats were fasted for at least 12 h before the oral administration of drugs.
The femoral artery, femoral vein, and bile duct were cannulated with polyethylene tubes (PE-50 and PE-10; Jungdo, Seoul, Korea) under light anesthesia with isoflurane.
For intravenous (IV) dosing, Jaspine B was dissolved in a vehicle containing DMSO: PEG400: saline (2:4:4, v/v/v) and was IV-injected via the femoral vein at 10 mg/kg (vehicle volume, 1 mL/kg). Blood samples were collected from the femoral artery at 0, 0.083, 0.167, 0.25, 0.5, 1, 2, 4, 6, 8, and 12 h following the IV administration of Jaspine B. Bile and urine samples were collected every 2 h for a total of 12 h. After centrifugation of blood samples at 13,200 rpm for 10 min, aliquots of 50 μL of plasma, bile, and urine were stored at −80 °C until the analysis of Jaspine B.
Aliquots (50 μL) of plasma, bile, feces homogenates, and urine samples were added to 250 μL of acetonitrile containing 0.5 ng/mL of berberine (an internal standard). After vortexing for 10 min and centrifugation at 13,200 rpm for 5 min, an aliquot (2 μL) of the supernatant was injected directly into the LC-MS/MS system. For the analysis of plasma concentration, the standard curve range was 25–5000 ng/mL and the concentrations of quality control (QC) samples were 75, 500, and 3000 ng/mL, as described previously. Concentrations of Jaspine B in urine, bile, and feces homogenates were 5–300 ng/mL, 20–5000 ng/mL, and 20–5000 ng/mL, respectively. The concentrations of QC samples were 15, 100, and 300 ng/mL for urine samples and 75, 500, and 3000 ng/mL for bile and feces homogenates.
Pharmacokinetic parameters were determined using a non-compartmental analysis (WinNonlin® 2.0; Pharsight, Mountain View, CA, USA). Maximum plasma concentration (Cmax) and time to reach Cmax (Tmax) values were obtained from plasma concentration-time curves. The area under the plasma concentration–time curve from zero to infinity (AUC) was calculated using the trapezoidal-extrapolation method. For extrapolation, the area from the last data point to infinity was estimated by dividing the […].
Total systemic clearance (CLtotal) was calculated by dividing IV dose by plasma AUC and the apparent volume of distribution at steady-state (Vss) was calculated by multiplying mean residence time (MRT) by CLtotal.

HepG2 = system: HepG2; parameters: method as in doi:10.5352/JLS.2016.26.12.1392; conditions: HepG2 hepatoma; cited from earlier work
[4] = Stability of QC samples in plasma; parameters: species or system rat
Experimental: For the analytical validation of Jaspine B in plasma samples, the standard curve range was 25–5000 ng/mL and the concentrations of quality control (QC) samples were 75, 500, and 3000 ng/mL. The recovery of these spiked QC sample were in the range of 88.2–98.1%. Intra- and inter-day precision and accuracy had coefficients of variance of less than 10%. The stability of Jaspine B QC samples after 3 freeze thaw cycles were 83.9–94.4% and the short-term stability of these samples after standing for 6 h at room temperature was 94.3–100.1%.

[5] = Sprague-Dawley (SD), brain, IV 10 mg/kg, read-out: T/P ratio, brain
[6] = Sprague-Dawley (SD), kidney, IV 10 mg/kg, read-out: T/P ratio, kidney
[7] = Sprague-Dawley (SD), liver, IV 10 mg/kg, read-out: T/P ratio, liver
[8] = male, Sprague-Dawley, rat plasma, IV 10 mg/kg

SMILES: CCCCCCCCCCCCCC[C@@H]1OC[C@H](N)[C@@H]1O [Jaspine B]
- IC50 (786-O): 29.4 µM
- metastatic melanoma cell growth in the lungs [1]: dramatically decreased
- Kp at 0.5 h [2, 5]: 6.2
- Kp at 12 h [2, 5]: 1.8
- Kp at 0.5 h ([2]; Sprague-Dawley (SD), heart, IV 10 mg/kg, read-out: T/P ratio, heart): 14.4
- Kp at 0.5 h [2, 6]: 11.1
- Kp at 12 h [2, 6]: 4.7
- Kp at 0.5 h [2, 7]: 2.3
- Kp at 12 h [2, 7]: 1.2
- Kp at 0.5 h ([2]; Sprague-Dawley (SD), spleen, IV 10 mg/kg, read-out: T/P ratio, spleen): 18.5
- Kp at 12 h ([2]; Sprague-Dawley, brain, kidney, heart, spleen, 10 mg/kg, single IV administration, read-out: T/P ratios in brain, kidney, heart and spleen): 2 to 4
- Kp at 12 h ([2]; Sprague-Dawley, heart, IV 10 mg/kg, read-out: T/P ratio, heart): 3.2
- Kp at 12 h ([2]; Sprague-Dawley, spleen, IV 10 mg/kg, read-out: T/P ratio, spleen): 3.9
- clearance ([3]; male, Sprague-Dawley, plasma, rat, IV 10 mg/kg, read-out: CLtotal): 98.3 ± 7.7 mL/min/kg
- Vd ([3]; male, Sprague-Dawley, plasma, rat, IV 10 mg/kg, read-out: Vss): 21.2 ± 2.6 L/kg
- half-life ([3]; male, Sprague-Dawley, rat, plasma, rat plasma, distribution phase, read-out: distribution half-life (converted)): 1.4 h
- half-life ([3]; male, Sprague-Dawley, rat, plasma, rat plasma, read-out: T1/2 (terminal half-life) (converted)): 6.7 ± 1.6 h
- AUC(0-inf) [3, 8]: 1700 ± 137 ng·h/mL
- MRT [3, 8]: 3.6 ± 0.5 h
- AUC(0-t) ([3]; male, Sprague-Dawley, rat plasma, IV 10 mg/kg, read-out: AUC12h): 1290 ± 166 ng·h/mL
- Xbile ([3]; rat bile, IV 10 mg/kg, 0-12 h): 2.4 ± 0.8 % of dose
- Xurine ([3]; rat urine, IV 10 mg/kg, 0-12 h): 0.4 ± 0.2 % of dose
- CLbile ([3]; rat, IV 10 mg/kg): 3.1 ± 0.6 mL/min/kg
- CLurine ([3]; rat, IV 10 mg/kg): 0.5 ± 0.3 mL/min/kg
- contribution of CLbile and CLurine to CLtotal ([3]; rat, IV 10 mg/kg): about 4%
- IC50 (HepG2): 5.69 µM
- stability after 3 freeze thaw cycles ([4]; plasma QC samples 75, 500, 3000 ng/mL): 83.9–94.4%
- short-term stability ([4]; plasma QC samples, 6 h at room temperature): 94.3–100.1%
